In patent US6929949B1, “Corona ion generating method and apparatus for the manipulation of molecules and biological cells” (University of South Florida, priority 2002, dated 2005):

System: human A204 sarcoma cells
Experiment: Corona charge facilitated uptake of calcein by cells in culture (fluorescence microscopy)
Type: cell-based
Conditions: for % FLOURESCENT (percentage of fluorescing cells): 10 μM calcein in PBS, visually estimated
Method: Referring initially to FIG. 2, the present invention has been used experimentally to facilitate the uptake of calcein by cells in culture. The experimental apparatus is shown as in FIG. 2. 35 mm diameter cell culture plates 4 were seeded with 0.5×10^6 human A204 sarcoma cells 5 approximately 24 hours prior to the experiment to allow time for the cells to attach to the growth surface on the bottom of each dish. Immediately prior to treating the cells with corona charge in air, the growth media was aspirated. Then 500 ÂμI of 10 ÂμM Calcein 6, in phosphate buffered saline 7; was introduced onto the bottom of the plate. Calcein molecules in the phosphate buffered saline are shown in the figure as a negatively charged species. The liquid was distributed over the entire growth surface. […] Corona charge 10 was deposited onto the samples in the presence of calcein for a range of times from 0 minutes to 10 minutes. The solution of calcein was allowed to remain in contact with each sample for a period of 10 minutes after corona exposure. Additionally, a positive or negative bias potential 11 can be applied to the sample. Each plate was then washed with two separate 1 ml aliquots of phosphate buffered saline to remove extracellular calcein. Finally, a 1 ml aliquot of phosphate buffered saline was pipetted into each sample plate. Samples were viewed with florescent microscopy to visually confirm the entry of the nonpermanent calcein resulting from corona charge exposure. The percentage of fluorescing cells was visually estimated based upon the total number of cells in the plates. The table shown below indicates the resulting percentages of fluorescing cells in each sample.

With O=C(O)CN(CC(=O)O)Cc1cc2c(cc1O)Oc1cc(O)c(CN(CC(=O)O)CC(=O)O)cc1C21OC(=O)c2ccccc21 [calcein, Calcein] the “entry of calcein into the cells” value (absence of corona exposure (sample 6)) was “did not result in the entry of calcein into the cells”, the “% FLOURESCENT (percentage of fluorescing cells)” value (corona exposure time 0 minutes (no corona exposure)) was 0% and the “% FLOURESCENT (percentage of fluorescing cells)” value (corona exposure time 2 minutes, positive corona, wire at 6000 V, 2.5 cm away) was “Less than 1%”. The “% FLOURESCENT (percentage of fluorescing cells)” value (corona exposure time 4 minutes, positive corona, wire at 6000 V, 2.5 cm away) was 15%, the “% FLOURESCENT (percentage of fluorescing cells)” value (corona exposure time 6 minutes, positive corona, wire at 6000 V, 2.5 cm away) was 20% and the “% FLOURESCENT (percentage of fluorescing cells)” value (corona exposure time 8 minutes, positive corona, wire at 6000 V, 2.5 cm away) was 30%. For the same compound, the “% FLOURESCENT (percentage of fluorescing cells)” value (corona exposure time 10 minutes, positive corona, wire at 6000 V, 2.5 cm away) was 80%.
